Literature values in paper PMC3212850 (ACS Medicinal Chemistry Letters, 2011).

System: cell lines

For apratoxin B, the “activity relative to apratoxin A” value is given as “reduces activity”.
